According to US20250262209A1, “TREATMENT OF GASTROINTESTINAL DISEASES” (Aclipse Two, Inc., priority 2022, published 2025):

Legend:
Format in all cases: cell-based, human
[1] = test system: monocytes from PBMC, M1-to-M2 macrophage repolarization; assay: M1-to-M2 macrophage repolarization assay; settings: cytokine analysis (MSD), day 14 supernatant
Description: The purpose of this study was to evaluate the effects of lobeglitazone and other thiazolidinediones on M1-to-M2 macrophage repolarization. The test articles and vehicles used in this study were lobeglitazone sulfate, pioglitazone HCl, and rosiglitazone.
M1-to-M2 macrophage repolarization assay timeline were as follows in Table 13.
Drug concentrations tested in the M1 differentiation assay are as in Table 14.
• (1) Isolate monocytes from PBMC using StemCell® monocyte isolation kit. • (2) Count cell and adjust the cell density to 0.5×10^6 cells/ml with fresh complete differentiation medium (add 10 μl M-CSF stock (100 μg/ml) 10 ml cell mixture to a final concentration of 50 ng/ml). • (3) Seed isolated monocyte 100 μL per well on 96-well plate. • (4) On day 4, add additional 100 μl medium containing M-CSF • (5) On day 6, add stimulator at 5× final concentration (200 μL medium in each well) to a final concentration of 50 ng/ml. • (6) On day 8, remove medium and replenish with 200 μL cytokine free medium, then add test compound (final concentration in μM) and incubate for 4 days. • (7) On day 12, add IL-4 and incubate for 2 days (add 50 μL of 100 ng/ml IL-4 to each well containing 200 μL medium to reach 20 ng/ml). • (8) On day 14, spin down the plates at 300×g for 5 min and collect the supernatant for cytokine quantification. • (9) M1 and M2 associated macrophage cytokines of interest are as follows in Table 15.
The cells are then collected for flow analysis of viability/CD11c/CD163/CD206.
Cell surface marker CD163, CD11c, and CD206 were applied to characterize M2 repolarization via flow cytometry. Controls included No stain and staining with all surface marker antibodies to confirm the optimization of gating strategy.

[2] = test system: monocytes differentiated to M1 macrophage; assay: M1 macrophage differentiation assay; settings: TNF-α, IL-1b, IL-6, IL-12, IL-23 in supernatant on day 7 (MSD); concentrations of Table 9
Description: The purpose of this study was to evaluate the effects of lobeglitazone and other thiazolidinediones on M1 macrophage differentiation. The test articles and vehicles used in this study were lobeglitazone sulfate, pioglitazone HCl, and rosiglitazone.
M1 macrophage differentiation assay timeline was as follows in Table 8.
Drug concentrations tested in the M1 differentiation assay are as in Table 9.
• (1) Revive frozen monocytes. • (2) Count cells and adjust the cell density to 0.5×10^6 cells/ml with fresh complete differentiation medium (RPMI1640+10% FBS+1% PS plus GM-CSF or M-CSF at 50 ng/ml). • (3) Seed isolated monocyte 100 μL per well on 96-well plate. • (4) Add test articles as the plate map using D300e (final concentration in μM). • (5) Differentiate the monocyte to macrophage in the presence of GM-CSF to M1, or M-CSF to M2 for 5 days. • (6) On day 5, add cytokines at 2× final concentration. • (6a) Prepare medium containing GM-CSF for M1 and M-CSF for M2. • (6b) Add corresponding activator to reach 2× final working concentration: (i) IFNγ stock 0.2 mg/ml: add 2.5 μL stock into 5 ml complete differentiation medium for 100 ng/ml; (ii) LPS stock 1.0 mg/ml: dilute to 20 μg/ml by mixing 2 μL stock into 100 μl medium; then add 10 μl 20 μg/ml LPS to 5 ml complete differentiation medium for 40 ng/ml; (iii) IL-4 stock 0.1 mg/ml: dilute 2 μL stock into 5 ml complete differentiation medium for 40 ng/ml. • (6c) Add 100 μL cytokine containing differentiating medium to each well, and total volume of each well is 200 μL. • (6d) Add test compound again using D300e. Make sure to set the final volume as 200 μL. • (7) Incubate cytokine and test compound for 48 hours. • (8) On day 7, spin down the plates at 300×g for 5 min and collect the supernatant for cytokine quantification using MSD. • (9) M1 associated macrophage cytokines TNF-α, IL-1b, IL-6, IL-12, and IL-23 were quantified.

[3] = test system: monocytes from PBMC differentiated into M2 macrophage; assay: M2 macrophage differentiation assay; settings: CD163, CD11c, CD206; donor 1 and 2
Description: The purpose of this study was to evaluate the effects of lobeglitazone and other thiazolidinediones on M2 macrophage differentiation. The test articles and vehicles used in this study were lobeglitazone sulfate, pioglitazone HCl, and rosiglitazone.
M2 macrophage differentiation assay timeline was as follows in Table 10.
• (1) Isolate monocytes from PBMC using StemCell® monocyte isolation kit • (2) Count cell and adjust the cell density to 0.5×10^6 cells/ml with fresh complete differentiation medium. Add 5 μL M-CSF stock ([…]) to each 5 ml cell mixture. • (3) Seed isolated monocyte 100 μL per well on 96-well plate. • (4) Add test articles as the plate map using D300e (final concentration in μM). • (5) Differentiate the monocyte to macrophage in the presence of M-CSF to […] for 4 days. • (6) On day 4, add additional medium containing M-CSF. • (7) Add test compounds using D300e (final volume=[…]). • (8) On day 6, add IL-4 at 5× final concentration (IL-4 stock 0.1 mg/ml: dilute 10 μl stock into 10 ml medium for 100 ng/ml. Add 50 μl 100 ng/ml IL-4 to each well containing 200 μL medium to reach 20 ng/ml). • (9) On day 8, spin down the plates at 300×g for 5 min and collect the supernatant for cytokine quantification using MSD. • (10) M2 associated macrophage cytokines of interest are listed below in Table 12.
• (11) Collect cells for flow analysis of viability/CD11c/CD163/CD206.
Flow cytometry and surface marker CD163, CD11c, and CD206 were applied to characterize M2 repolarization. No stain and all stain with surface marker antibody to confirm the optimization of gating strategy.

Row | SMILES | concentration showing remarkable promotion of MDC expression [1] | M1 macrophage cytokines expression [2] | concentration at which M2 repolarization was promoted (M2 macrophage surface markers, flow cytometry) [3]
1 | CN(CCOc1ccc(CC2SC(=O)NC2=O)cc1)c1ccccn1 (racemic) [rosiglitazone, (RS)-5-[4-(2-[methyl(pyridin-2-yl)amino]ethoxy)benzyl]thiazolidine-2,4-dione] | 6.4 µM | promoted the M1 macrophage cytokines in a dose-dependent manner | ~0.4 µM
2 | CCc1ccc(CCOc2ccc(CC3SC(=O)NC3=O)cc2)nc1.Cl (racemic) [pioglitazone, (±)-5-[p-[2-(5-Ethyl-2-pyridyl)ethoxy]benzyl]-2,4-thiazolidinedione monohydrochloride] | 5 µM | promoted the M1 macrophage cytokines in a dose-dependent manner | ~10 µM
